Measurements reported in ChEMBL document CHEMBL2046376, “Synthesis and antimicrobial activity of amide derivatives of polyether antibiotic-salinomycin” (2012).
In brackets after ≈: the same amount, converted by molar mass. Activity calls are given as the source filed them. No cut-off for these calls is given here.

Experiments:
Format in all cases: functional
Staphylococcus aureus [1] = assay: Antibacterial activity against hospital-acquired methicillin-sensitive Staphylococcus aureus 444/11 after 18 hrs by twofold serial agar dilution technique; conditions: 444/11, 18 h
Staphylococcus aureus [2] = assay: Antibacterial activity against hospital-acquired methicillin-sensitive Staphylococcus aureus 445/11 after 18 hrs by twofold serial agar dilution technique; conditions: 445/11, 18 h
Candida albicans [3] = assay: Antifungal activity against Candida albicans ATCC 10231 after 24 hrs by twofold serial agar dilution technique
Pseudomonas aeruginosa [4] = assay: Antibacterial activity against Pseudomonas aeruginosa ATCC 27853 after 18 hrs by twofold serial agar dilution technique
Staphylococcus aureus [5] = assay: Antibacterial activity against hospital-acquired methicillin-resistant Staphylococcus aureus 481/11 after 18 hrs by twofold serial agar dilution technique; conditions: 481/11, 18 h
Staphylococcus aureus [6] = assay: Antibacterial activity against hospital-acquired methicillin-sensitive Staphylococcus aureus 449/11 after 18 hrs by twofold serial agar dilution technique; conditions: 449/11, 18 h
[7] = system: Staphylococcus epidermidis; assay: Antibacterial activity against Staphylococcus epidermidis ATCC 35984 assessed as zone of inhibition at 400 ug/disc after 18 hrs by disc diffusion method; conditions: ATCC 35984, 18 h, read-out: DIZ
Escherichia coli [8] = assay: Antibacterial activity against Escherichia coli ATCC 25922 after 18 hrs by twofold serial agar dilution technique
[9] = system: Staphylococcus epidermidis; assay: Antibacterial activity against Staphylococcus epidermidis ATCC 12228 after 18 hrs by twofold serial agar dilution technique; conditions: ATCC 12228, 18 h
Pseudomonas aeruginosa [10] = assay: Antibacterial activity against Pseudomonas aeruginosa ATCC 15442 after 18 hrs by twofold serial agar dilution technique
Escherichia coli [11] = assay: Antibacterial activity against Escherichia coli ATCC 10538 after 18 hrs by twofold serial agar dilution technique
Staphylococcus aureus [12] = assay: Antibacterial activity against hospital-acquired methicillin-resistant Staphylococcus aureus 450/11 after 18 hrs by twofold serial agar dilution technique; conditions: 450/11, 18 h
Staphylococcus aureus [13] = assay: Antibacterial activity against Staphylococcus aureus ATCC 29213 after 18 hrs by twofold serial agar dilution technique; conditions: ATCC 29213, 18 h
Staphylococcus aureus [14] = assay: Antibacterial activity against Staphylococcus aureus ATCC 25923 assessed as zone of inhibition at 400 ug/disc after 18 hrs by disc diffusion method; conditions: ATCC 25923, 18 h, read-out: DIZ
Candida albicans [15] = assay: Antifungal activity against Candida albicans ATCC 90028 after 24 hrs by twofold serial agar dilution technique
Staphylococcus aureus [16] = assay: Antibacterial activity against Staphylococcus aureus NCTC 4163 after 18 hrs by twofold serial agar dilution technique; conditions: NCTC 4163, 18 h
Staphylococcus aureus [17] = assay: Antibacterial activity against hospital-acquired methicillin-resistant Staphylococcus aureus 399/10 after 18 hrs by twofold serial agar dilution technique; conditions: 399/10, 18 h
Staphylococcus aureus [18] = assay: Antibacterial activity against hospital-acquired methicillin-sensitive Staphylococcus aureus 441/11 after 18 hrs by twofold serial agar dilution technique; conditions: 441/11, 18 h
Staphylococcus aureus [19] = assay: Antibacterial activity against hospital-acquired methicillin-sensitive Staphylococcus aureus 448/11 after 18 hrs by twofold serial agar dilution technique; conditions: 448/11, 18 h
Staphylococcus aureus [20] = assay: Antibacterial activity against hospital-acquired methicillin-resistant Staphylococcus aureus 451/11 after 18 hrs by twofold serial agar dilution technique; conditions: 451/11, 18 h
Staphylococcus aureus [21] = assay: Antibacterial activity against methicillin-resistant Staphylococcus aureus clinical isolate
Staphylococcus aureus [22] = assay: Antibacterial activity against hospital-acquired methicillin-resistant Staphylococcus aureus 393/10 after 18 hrs by twofold serial agar dilution technique; conditions: 393/10, 18 h
Staphylococcus aureus [23] = assay: Antibacterial activity against Staphylococcus aureus ATCC 29213 assessed as zone of inhibition at 400 ug/disc after 18 hrs by disc diffusion method; conditions: ATCC 29213, 18 h, read-out: DIZ
Staphylococcus aureus [24] = assay: Antibacterial activity against hospital-acquired methicillin-resistant Staphylococcus aureus 452/11 after 18 hrs by twofold serial agar dilution technique; conditions: 452/11, 18 h
Staphylococcus aureus [25] = assay: Antibacterial activity against hospital-acquired methicillin-sensitive Staphylococcus aureus 446/11 after 18 hrs by twofold serial agar dilution technique; conditions: 446/11, 18 h
[26] = system: Staphylococcus epidermidis; assay: Antibacterial activity against Staphylococcus epidermidis ATCC 12228 assessed as zone of inhibition at 400 ug/disc after 18 hrs by disc diffusion method; conditions: ATCC 12228, 18 h, read-out: DIZ
Staphylococcus aureus [27] = assay: Antibacterial activity against hospital-acquired methicillin-sensitive Staphylococcus aureus 440/11 after 18 hrs by twofold serial agar dilution technique; conditions: 440/11, 18 h
Escherichia coli [28] = assay: Antibacterial activity against Escherichia coli NCTC 8196 after 18 hrs by twofold serial agar dilution technique
[29] = system: Staphylococcus epidermidis; assay: Antibacterial activity against Staphylococcus epidermidis ATCC 35984 after 18 hrs by twofold serial agar dilution technique; conditions: ATCC 35984, 18 h
Staphylococcus aureus [30] = assay: Antibacterial activity against hospital-acquired methicillin-resistant Staphylococcus aureus 400/10 after 18 hrs by twofold serial agar dilution technique; conditions: 400/10, 18 h
Staphylococcus aureus [31] = assay: Antibacterial activity against Staphylococcus aureus NCTC 4163 assessed as zone of inhibition at 400 ug/disc after 18 hrs by disc diffusion method; conditions: NCTC 4163, 18 h, read-out: DIZ
Staphylococcus aureus [32] = assay: Antibacterial activity against Staphylococcus aureus ATCC 25923 after 18 hrs by twofold serial agar dilution technique; conditions: ATCC 25923, 18 h
Staphylococcus aureus [33] = assay: Antibacterial activity against hospital-acquired methicillin-resistant Staphylococcus aureus 401/10 after 18 hrs by twofold serial agar dilution technique; conditions: 401/10, 18 h
Candida parapsilosis = assay: Antifungal activity against Candida parapsilosis ATCC 22019 after 24 hrs by twofold serial agar dilution technique
Staphylococcus aureus [34] = assay: Antibacterial activity against Staphylococcus aureus ATCC 6538 assessed as zone of inhibition at 400 ug/disc after 18 hrs by disc diffusion method; conditions: ATCC 6538, 18 h, read-out: DIZ
Staphylococcus aureus [35] = assay: Antibacterial activity against hospital-acquired methicillin-resistant Staphylococcus aureus 394/10 after 18 hrs by twofold serial agar dilution technique; conditions: 394/10, 18 h
Staphylococcus aureus [36] = assay: Antibacterial activity against Staphylococcus aureus ATCC 6538 after 18 hrs by twofold serial agar dilution technique; conditions: ATCC 6538, 18 h
Proteus vulgaris = assay: Antibacterial activity against Proteus vulgaris NCTC 4635 after 18 hrs by twofold serial agar dilution technique
Pseudomonas aeruginosa [37] = assay: Antibacterial activity against Pseudomonas aeruginosa NCTC 6749 after 18 hrs by twofold serial agar dilution technique
Staphylococcus aureus [38] = assay: Antibacterial activity against hospital-acquired methicillin-sensitive Staphylococcus aureus 447/11 after 18 hrs by twofold serial agar dilution technique; conditions: 447/11, 18 h
Staphylococcus aureus [39] = assay: Antibacterial activity against hospital-acquired methicillin-resistant Staphylococcus aureus 482/11 after 18 hrs by twofold serial agar dilution technique; conditions: 482/11, 18 h
[40] = system: Bordetella bronchiseptica; assay: Antibacterial activity against Bordetella bronchiseptica ATCC 4617 after 18 hrs by twofold serial agar dilution technique
Staphylococcus aureus [41] = assay: Antibacterial activity against hospital-acquired methicillin-sensitive Staphylococcus aureus 442/11 after 18 hrs by twofold serial agar dilution technique; conditions: 442/11, 18 h
Staphylococcus aureus [42] = assay: Antibacterial activity against hospital-acquired methicillin-sensitive Staphylococcus aureus 443/11 after 18 hrs by twofold serial agar dilution technique; conditions: 443/11, 18 h

With `CC[C@@H](C(=O)[C@@H](C)[C@@H](O)[C@H](C)[C@@H]1O[C@@H]([C@@H](CC)C(=O)O)CC[C@@H]1C)[C@H]1O[C@]2(C=C[C@@H](O)[C@]3(CC[C@@](C)([C@H]4CC[C@](O)(CC)[C@H](C)O4)O3)O2)[C@H](C)C[C@@H]1C` [SALINOMYCIN] the MIC (Staphylococcus aureus [1]) was 2 µg/mL (≈ 2.66 µM), the MIC (Staphylococcus aureus [2]) was 1 µg/mL (≈ 1.33 µM) and the Activity (Candida albicans [3]) was “inactive”. The Activity (Pseudomonas aeruginosa [4]) was “inactive”, the MIC (Staphylococcus aureus [5]) was 1 µg/mL (≈ 1.33 µM) and the MIC (Staphylococcus aureus [6]) was 1 µg/mL (≈ 1.33 µM). For the same compound, the zone of inhibition at 400 µg/disc [7] was 30 mm, the Activity (Escherichia coli [8]) was “inactive” and the MIC [9] was 2 µg/mL (≈ 2.66 µM). For the same compound, the Activity (Pseudomonas aeruginosa [10]) was “inactive”, the Activity (Escherichia coli [11]) was “inactive” and the MIC (Staphylococcus aureus [12]) was 2 µg/mL (≈ 2.66 µM). The MIC (Staphylococcus aureus [13]) was 2 µg/mL (≈ 2.66 µM), the zone of inhibition at 400 µg/disc (Staphylococcus aureus [14]) was 31 mm and the Activity (Candida albicans [15]) was “inactive”. For the same compound, the MIC (Staphylococcus aureus [16]) was 2 µg/mL (≈ 2.66 µM), the MIC (Staphylococcus aureus [17]) was 1 µg/mL (≈ 1.33 µM) and the MIC (Staphylococcus aureus [18]) was 2 µg/mL (≈ 2.66 µM). The MIC (Staphylococcus aureus [19]) was 2 µg/mL (≈ 2.66 µM), the MIC (Staphylococcus aureus [20]) was 2 µg/mL (≈ 2.66 µM) and the MIC (Staphylococcus aureus [21]) was 1 µg/mL (≈ 1.33 µM). For the same compound, the MIC (Staphylococcus aureus [22]) was 2 µg/mL (≈ 2.66 µM), the zone of inhibition at 400 µg/disc (Staphylococcus aureus [23]) was 29 mm and the MIC (Staphylococcus aureus [24]) was 1 µg/mL (≈ 1.33 µM). For the same compound, the MIC (Staphylococcus aureus [25]) was 1 µg/mL (≈ 1.33 µM), the zone of inhibition at 400 µg/disc [26] was 28 mm and the MIC (Staphylococcus aureus [27]) was 1 µg/mL (≈ 1.33 µM). The Activity (Escherichia coli [28]) was “inactive”, the MIC [29] was 2 µg/mL (≈ 2.66 µM) and the MIC (Staphylococcus aureus [30]) was 1 µg/mL (≈ 1.33 µM). It also gave a zone of inhibition at 400 µg/disc (Staphylococcus aureus [31]) of 33 mm, an MIC (Staphylococcus aureus [32]) of 2 µg/mL (≈ 2.66 µM) and an MIC (Staphylococcus aureus [33]) of 1 µg/mL (≈ 1.33 µM). For the same compound, the Activity (Candida parapsilosis) was “inactive”, the zone of inhibition at 400 µg/disc (Staphylococcus aureus [34]) was 30 mm and the MIC (Staphylococcus aureus [35]) was 2 µg/mL (≈ 2.66 µM). The MIC (Staphylococcus aureus [36]) was 2 µg/mL (≈ 2.66 µM), the Activity (Proteus vulgaris) was “inactive” and the Activity (Pseudomonas aeruginosa [37]) was “inactive”. The MIC (Staphylococcus aureus [38]) was 2 µg/mL (≈ 2.66 µM), the MIC (Staphylococcus aureus [39]) was 2 µg/mL (≈ 2.66 µM) and the Activity [40] was “inactive”. The MIC (Staphylococcus aureus [41]) was 2 µg/mL (≈ 2.66 µM) and the MIC (Staphylococcus aureus [42]) was 2 µg/mL (≈ 2.66 µM).
For `CC[C@@H](C(=O)[C@@H](C)[C@@H](O)[C@H](C)[C@@H]1O[C@@H]([C@@H](CC)C(=O)NCCCN2CCCCC2)CC[C@@H]1C)[C@H]1O[C@]2(C=C[C@@H](O)[C@]3(CC[C@@](C)([C@H]4CC[C@](O)(CC)[C@H](C)O4)O3)O2)[C@H](C)C[C@@H]1C`, the MIC (Staphylococcus aureus [1]) was 32 µg/mL (≈ 36.6 µM), the MIC (Staphylococcus aureus [2]) was 32 µg/mL (≈ 36.6 µM) and the Activity (Candida albicans [3]) was “inactive”. For the same compound, the Activity (Pseudomonas aeruginosa [4]) was “inactive”, the MIC (Staphylococcus aureus [5]) was 64 µg/mL (≈ 73.1 µM) and the MIC (Staphylococcus aureus [6]) was 32 µg/mL (≈ 36.6 µM). The zone of inhibition at 400 µg/disc [7] was 11 mm, the Activity (Escherichia coli [8]) was “inactive” and the MIC [9] was 128 µg/mL (≈ 146 µM). The Activity (Pseudomonas aeruginosa [10]) was “inactive”, the Activity (Escherichia coli [11]) was “inactive” and the MIC (Staphylococcus aureus [12]) was 64 µg/mL (≈ 73.1 µM). The MIC (Staphylococcus aureus [13]) was 128 µg/mL (≈ 146 µM), the zone of inhibition at 400 µg/disc (Staphylococcus aureus [14]) was 11 mm and the Activity (Candida albicans [15]) was “inactive”. For the same compound, the MIC (Staphylococcus aureus [16]) was 128 µg/mL (≈ 146 µM), the MIC (Staphylococcus aureus [17]) was 64 µg/mL (≈ 73.1 µM) and the MIC (Staphylococcus aureus [18]) was 64 µg/mL (≈ 73.1 µM). The MIC (Staphylococcus aureus [19]) was 32 µg/mL (≈ 36.6 µM), the MIC (Staphylococcus aureus [20]) was 32 µg/mL (≈ 36.6 µM) and the MIC (Staphylococcus aureus [22]) was 64 µg/mL (≈ 73.1 µM). For the same compound, the zone of inhibition at 400 µg/disc (Staphylococcus aureus [23]) was 11 mm, the MIC (Staphylococcus aureus [24]) was 32 µg/mL (≈ 36.6 µM) and the MIC (Staphylococcus aureus [25]) was 64 µg/mL (≈ 73.1 µM). The zone of inhibition at 400 µg/disc [26] was 11 mm, the MIC (Staphylococcus aureus [27]) was 32 µg/mL (≈ 36.6 µM) and the Activity (Escherichia coli [28]) was “inactive”. For the same compound, the MIC [29] was 256 µg/mL (≈ 292 µM), the MIC (Staphylococcus aureus [30]) was 64 µg/mL (≈ 73.1 µM) and the zone of inhibition at 400 µg/disc (Staphylococcus aureus [31]) was 12 mm. The MIC (Staphylococcus aureus [32]) was 128 µg/mL (≈ 146 µM), the MIC (Staphylococcus aureus [33]) was 64 µg/mL (≈ 73.1 µM) and the Activity (Candida parapsilosis) was “inactive”. For the same compound, the zone of inhibition at 400 µg/disc (Staphylococcus aureus [34]) was 13 mm, the MIC (Staphylococcus aureus [35]) was 64 µg/mL (≈ 73.1 µM) and the MIC (Staphylococcus aureus [36]) was 128 µg/mL (≈ 146 µM). For the same compound, the Activity (Proteus vulgaris) was “inactive”, the Activity (Pseudomonas aeruginosa [37]) was “inactive” and the MIC (Staphylococcus aureus [38]) was 32 µg/mL (≈ 36.6 µM). The MIC (Staphylococcus aureus [39]) was 64 µg/mL (≈ 73.1 µM), the Activity [40] was “inactive” and the MIC (Staphylococcus aureus [41]) was 32 µg/mL (≈ 36.6 µM). It also gave an MIC (Staphylococcus aureus [42]) of 32 µg/mL (≈ 36.6 µM).
